Assay results reported in patent US9617229B2, “Phenylmorpholines and analogues thereof” (Research Triangle Institute, priority 2010, dated 2017).
Structures can show the parent of a compound that is named as a salt. Where two headings read alike, the source gives them in different places.

Legend:
DAT = DAT (Rattus norvegicus, UniProt P23977); test: DA release assay (synaptosomes, [3H]MPP+); type: biochemical; parameters: the supernatants were retained on ice (synaptosomal preparation); from tissue; host or cells: rat caudate synaptosomes; conditions: for activation at 10 µM: Table 3
DAT, sequence (P23977 whole entry): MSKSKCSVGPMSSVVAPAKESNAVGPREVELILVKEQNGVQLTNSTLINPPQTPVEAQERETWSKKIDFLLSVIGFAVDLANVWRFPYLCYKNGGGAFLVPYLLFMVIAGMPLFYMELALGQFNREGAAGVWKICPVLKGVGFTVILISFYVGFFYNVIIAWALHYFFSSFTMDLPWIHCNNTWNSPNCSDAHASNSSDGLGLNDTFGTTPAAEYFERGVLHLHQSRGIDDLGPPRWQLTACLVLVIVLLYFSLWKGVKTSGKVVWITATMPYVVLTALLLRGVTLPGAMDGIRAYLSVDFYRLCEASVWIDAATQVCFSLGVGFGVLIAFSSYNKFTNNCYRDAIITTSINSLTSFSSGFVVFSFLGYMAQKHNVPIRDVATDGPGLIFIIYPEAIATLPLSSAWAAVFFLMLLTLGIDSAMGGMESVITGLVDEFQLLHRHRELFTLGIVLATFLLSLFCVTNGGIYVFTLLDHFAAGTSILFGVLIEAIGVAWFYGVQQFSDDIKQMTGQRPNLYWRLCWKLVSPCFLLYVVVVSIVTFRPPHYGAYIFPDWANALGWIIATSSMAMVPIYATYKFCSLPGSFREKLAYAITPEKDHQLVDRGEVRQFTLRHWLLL
Description: (§1) Rat caudate (for DA release) or whole brain minus cerebellum and caudate (for NE and 5-HT release), was homogenized in ice-cold 10% sucrose containing 1 μM reserpine. Nomifensine (100 nM) and GBR12935 (100 nM) were added to the sucrose solution for [^3H]5-HT release experiments to block any potential [^3H]5-HT reuptake into NE and DA nerve terminals. For the DA release assay, 100 nM desipramine and 100 nM citalopram were added to block [^3H]MPP^+ uptake into NE and 5-HT nerves. For the NE release assay, 50 nM GBR12935 and 100 nM citalopram were added to block [^3H]MPP^+ uptake into DA and 5-HT nerves. After 12 strokes with a Potter-Elvehjem homogenizer, homogenates were centrifuged at 1000×g for 10 min at 0-4° C. and the supernatants were retained on ice (synaptosomal preparation).
(§2) After incubation to steady state, 850 μl of synaptosomes preloaded with [^3H]ligand were added to 12×75 mm polystyrene test tubes that contained 150 μl test drug in uptake buffer plus 1 mg/ml BSA. After 5 min (^3H]5-HT) or 30 min (NE and DA assays) the release reaction was terminated by dilution with 4 ml wash buffer (10 mM Tris-HCl pH 7.4 containing 0.9% NaCl at 25° C.) followed by rapid vacuum filtration over Whatman GF/B filters using a Brandel Harvester. The filters were rinsed twice with 4 ml wash buffer using the Brandel Harvester, and the retained tritium was counted by a Taurus liquid scintillation counter at 40% efficiency after an overnight extraction in 3 ml Cytoscint (ICN).
(§3) In substrate reversal experiments, statistical significance was determined using the Student's t-test.

NET = target: T1, NET (Rattus norvegicus, UniProt Q63380); test: NE release assay (synaptosomes, [3H]MPP+); type: biochemical
T1 construct: the supernatants were retained on ice (synaptosomal preparation); from tissue; host or cells: rat whole brain minus cerebellum and caudate, synaptosomes
T1 sequence (Q63380 1-617): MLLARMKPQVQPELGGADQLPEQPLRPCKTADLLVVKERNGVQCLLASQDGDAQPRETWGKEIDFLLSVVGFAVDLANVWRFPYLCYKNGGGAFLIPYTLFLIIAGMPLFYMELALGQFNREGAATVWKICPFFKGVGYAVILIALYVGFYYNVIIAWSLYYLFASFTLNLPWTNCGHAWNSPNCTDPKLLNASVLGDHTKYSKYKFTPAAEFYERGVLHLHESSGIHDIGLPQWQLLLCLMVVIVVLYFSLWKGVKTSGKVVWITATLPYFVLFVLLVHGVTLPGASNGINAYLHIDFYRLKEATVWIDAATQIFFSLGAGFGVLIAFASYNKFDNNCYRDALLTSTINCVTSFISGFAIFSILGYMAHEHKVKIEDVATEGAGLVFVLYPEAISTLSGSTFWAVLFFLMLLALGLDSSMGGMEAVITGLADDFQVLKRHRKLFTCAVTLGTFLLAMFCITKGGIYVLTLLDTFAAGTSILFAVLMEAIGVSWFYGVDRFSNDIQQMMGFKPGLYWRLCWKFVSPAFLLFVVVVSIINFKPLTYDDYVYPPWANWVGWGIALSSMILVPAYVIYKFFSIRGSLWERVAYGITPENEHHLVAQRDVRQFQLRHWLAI
Description: as §1, §2, §3

SERT [1] = target: T2, SERT (Rattus norvegicus, UniProt P31652); test: 5-HT release assay (synaptosomes, [3H]5-HT); type: biochemical; parameters: the supernatants were retained on ice (synaptosomal preparation); from tissue; host or cells: rat whole brain minus cerebellum and caudate, synaptosomes; conditions: for activation at 10 µM / Release 5-HT (EC50 nm): Table 3; for Release 5-HT (EC50 nm): rat brain synaptosomes
T2 sequence (P31652 whole entry): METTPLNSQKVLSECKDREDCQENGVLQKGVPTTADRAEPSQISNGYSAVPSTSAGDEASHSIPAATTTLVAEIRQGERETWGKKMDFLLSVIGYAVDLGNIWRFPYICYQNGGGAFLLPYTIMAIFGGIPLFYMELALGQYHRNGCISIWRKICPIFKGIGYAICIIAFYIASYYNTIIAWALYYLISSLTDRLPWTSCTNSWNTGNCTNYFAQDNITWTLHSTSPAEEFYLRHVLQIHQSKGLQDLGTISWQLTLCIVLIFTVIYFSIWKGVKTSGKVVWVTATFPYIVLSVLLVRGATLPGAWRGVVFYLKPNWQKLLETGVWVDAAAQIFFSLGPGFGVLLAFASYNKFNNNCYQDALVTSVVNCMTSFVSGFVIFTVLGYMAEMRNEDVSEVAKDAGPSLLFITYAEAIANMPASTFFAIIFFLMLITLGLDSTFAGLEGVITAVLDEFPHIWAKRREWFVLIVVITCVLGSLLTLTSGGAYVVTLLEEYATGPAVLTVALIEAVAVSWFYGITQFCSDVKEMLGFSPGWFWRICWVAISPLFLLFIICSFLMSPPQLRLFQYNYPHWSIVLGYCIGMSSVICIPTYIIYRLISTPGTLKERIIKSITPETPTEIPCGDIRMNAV
Description: as §1, §2, §3

5-HT2B receptor [2] = target: T3, 5-HT2B receptor (Homo sapiens, UniProt P41595); test: 5-HT2B activity, antagonist; type: cell-based
T3 sequence (P41595 whole entry): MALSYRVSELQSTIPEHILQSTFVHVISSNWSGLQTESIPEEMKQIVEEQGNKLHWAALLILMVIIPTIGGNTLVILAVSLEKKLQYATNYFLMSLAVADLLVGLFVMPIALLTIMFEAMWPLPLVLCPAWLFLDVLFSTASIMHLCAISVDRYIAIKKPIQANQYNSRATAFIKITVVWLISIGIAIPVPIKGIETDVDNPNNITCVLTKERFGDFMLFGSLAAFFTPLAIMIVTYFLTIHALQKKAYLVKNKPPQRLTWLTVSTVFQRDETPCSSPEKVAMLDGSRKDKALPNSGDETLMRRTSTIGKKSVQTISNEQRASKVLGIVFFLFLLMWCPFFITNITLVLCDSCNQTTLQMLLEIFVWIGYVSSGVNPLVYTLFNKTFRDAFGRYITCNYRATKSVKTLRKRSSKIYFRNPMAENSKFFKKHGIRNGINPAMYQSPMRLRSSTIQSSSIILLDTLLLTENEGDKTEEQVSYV

5-HT2B receptor [3] = target: T3, 5-HT2B receptor; test: 5-HT2B activity, agonist; type: cell-based
SERT [4] = target: T2, SERT; test: 5HT uptake inhibition; type: biochemical
[5] = Release NE (EC50 nm), Table 3, rat brain synaptosomes

Compound: CC1NCCOC1c1ccccc1 (single isomer, unassigned; (-)) [(−)-isomer, reference compound]
- DA releaser activity (in words) (DAT): active as a releaser, but is not as potent

Compound: C[C@H]1NCCOC1c1cccc(F)c1 (stereo in doubt) [PAL593, 2-(3-fluoro-phenyl)-3-methyl-morpholine]
- EC50 (DAT): 43 nM
- EC50 (NET; NE Rel (EC50), Table 4): 30 nM
- EC50 (SERT [1]): 2560 nM

Compound: C[C@H]1NCCOC1c1cccc(Cl)c1 (stereo in doubt) [PAL594, 2-(3-chloro-phenyl)-3-methyl-morpholine]
- EC50 (DAT): 27 nM
- activation at 10 µM (DAT): 100%
- inhibition at 1 µM (5-HT2B receptor [2]): 28%
- EC50 (NET; NE Rel (EC50), Table 4): 75 nM
- activation at 10 µM (NET; Table 3): 82%
- 5HT releaser activity (in words) (SERT [1]): improvements in 5HT release
- EC50 (SERT [1]): 301 nM
- activation at 10 µM (SERT [1]): 95%
- activation at 10 µM (5-HT2B receptor [3]): 2%

Compound: C[C@H]1NCCOC1c1ccccc1 (stereo partly shown) [PAL55, reference compound]
- EC50 (DAT): 131 nM
- EC50 (NET; [5]): 50 nM
- EC50 (SERT [1]): 7770 nM
- activation at 10 µM (5-HT2B receptor [3]): 0%

Compound: C[C@H]1NCCO[C@@H]1c1ccccc1 [PAL56, (+)-phenmetrazine, reference compound]
- DA releaser activity (in words) (DAT): effective DA/5HT releaser
- EC50 (DAT): 87 nM
- inhibition at 1 µM (5-HT2B receptor [2]): 42%
- EC50 (NET; NE Rel (EC50), Table 4): 38 nM
- EC50 (NET; [5]): 37 nM
- 5HT releaser activity (in words) (SERT [1]): effective DA/5HT releaser
- EC50 (SERT [1]): 3250 nM
- activation at 10 µM (5-HT2B receptor [3]): 0%

Compound: C[C@@H]1NCCO[C@H]1c1ccccc1 [PAL57, reference compound]
- EC50 (DAT): 415 nM
- EC50 (NET; [5]): 63 nM
- Release 5-HT (EC50 nm) (SERT [1]): inactive
- activation at 10 µM (5-HT2B receptor [3]): 0%

Compound: C[C@H]1NCCO[C@H]1c1ccccc1 [PAL60, reference compound]
- EC50 (DAT): 1460 nM
- EC50 (NET; [5]): 349 nM
- Release 5-HT (EC50 nm) (SERT [1]): Inactive
- activation at 10 µM (5-HT2B receptor [3]): 0%

Compound: CC1NCCOC1(O)c1ccccc1 (stereo not shown) [PAL583, 3-methyl-2-phenylmorpholin-2-ol]
- activation at 10 µM (DAT): 29%
- inhibition at 1 µM (5-HT2B receptor [2]): 6%
- activation at 10 µM (NET; Table 3): 69%
- activation at 10 µM (SERT [1]): 0%
- activation at 10 µM (5-HT2B receptor [3]): 0%

Compound: CC1NCCOC1(O)c1cccc(F)c1 (stereo not shown) [PAL587, 2-(3-fluorophenyl)-3-methylmorpholin-2-ol]
- activation at 10 µM (DAT): 34%
- inhibition at 1 µM (5-HT2B receptor [2]): 0%
- activation at 10 µM (NET; Table 3): 67%
- activation at 10 µM (SERT [1]): 6%
- activation at 10 µM (5-HT2B receptor [3]): 0%

Compound: Cc1cccc(C2(O)OCCNC2C)c1 (stereo not shown) [PAL589, 3-methyl-2-(3′-tolyl)morpholin-2-ol]
- activation at 10 µM (DAT): 28%
- inhibition at 1 µM (5-HT2B receptor [2]): 12%
- activation at 10 µM (NET; Table 3): 47%
- activation at 10 µM (SERT [1]): 56%
- activation at 10 µM (5-HT2B receptor [3]): 0%

Compound: CC1NCCOC1(O)c1cccc(Cl)c1 (stereo not shown) [PAL590, 2-(3-chlorophenyl)-3-methylmorpholin-2-ol]
- activation at 10 µM (DAT): 39%
- inhibition at 1 µM (5-HT2B receptor [2]): 16%
- activation at 10 µM (NET; Table 3): 62%
- activation at 10 µM (SERT [1]): 41%
- activation at 10 µM (5-HT2B receptor [3]): 0%

Compound: CC1NCCOC1c1cccc(F)c1 (stereo not shown) [PAL593, 2-(3-fluoro-phenyl)-3-methyl-morpholine]
- activation at 10 µM (DAT): 100%
- inhibition at 1 µM (5-HT2B receptor [2]): 1%
- activation at 10 µM (NET; Table 3): 93%
- activation at 10 µM (SERT [1]): 95%
- activation at 10 µM (5-HT2B receptor [3]): 0%

Compound: c1ccc(C2CNCCO2)cc1 (stereo not shown) [PAL632]
- EC50 (DAT): 86 nM
- activation at 10 µM (DAT): 98%
- inhibition at 1 µM (5-HT2B receptor [2]): 12%
- EC50 (NET; NE Rel (EC50), Table 4): 79 nM
- activation at 10 µM (NET; Table 3): 96%
- EC50 (SERT [1]): 20300 nM
- activation at 10 µM (SERT [1]): 31%
- activation at 10 µM (5-HT2B receptor [3]): 2%

Compound: Fc1ccc(C2CNCCO2)cc1 (stereo not shown) [PAL635, 2-(4-fluorophenyl)morpholine]
- EC50 (DAT): 529 nM
- activation at 10 µM (DAT): 95%
- EC50 (NET; NE Rel (EC50), Table 4): 285 nM
- activation at 10 µM (NET; Table 3): 100%
- EC50 (SERT [1]): 2400 nM
- activation at 10 µM (SERT [1]): 88%
- activation at 10 µM (5-HT2B receptor [3]): 0%

Compound: CC1NCCOC1c1ccc2ccccc2c1 (stereo not shown) [PAL 704, 3-Methyl-2-(2′-Naphthyl)morpholine hydrochloride]
- DA releaser activity (in words) (DAT): DA/NE releasers
- EC50 (DAT): 111 nM
- 5HT uptake inhibition (in words) (SERT [4]): 5HT uptake inhibitors
- EC50 (SERT [4]): 105 nM
- NE releaser activity (in words) (NET): DA/NE releasers
- EC50 (NET; NE Rel (EC50), Table 4): 203 nM

Compound: C[C@H]1CO[C@@H](c2ccccc2)CN1 [PAL 730, (2S,5S)-5-Methyl-2-phenyl-morpholine]
- EC50 (DAT): 212 nM
- EC50 (NET): 79 nM
- EC50 (SERT [1]): 107 nM

Compound: C[C@H]1CO[C@@H](c2cccc(Cl)c2)CN1 [PAL 738, (2S,5S)-2-(3-Chloro-phenyl)-5-methyl-morpholine]
- EC50 (DAT): 58 nM
- EC50 (NET): 65 nM
- EC50 (SERT [1]): 23 nM
